Data set [1] in a line: method code SF-NMR, from DOI: 10.1002/jps.2600751016, PMID: 3795031.
Data set [2] in a line: method code SF-HPLC, from DOI: 10.1016/0378-5173(85)90011-0.
The nature of data set [3]: method code SF-AS, from DOI: 10.1248/cpb.32.2380.
Data set [4] is described as follows: method code SF-HPLC, from DOI: 10.1016/0378-5173(92)90116-j. Conditions: pH 7.4.
Experiment in data set [5]: not given
The source holds these as a separate data set.

Data set [6] is described as follows: method code SF-AS, from DOI: 10.1007/bf01964075. To be noted: pH 2.1.
Experiment in data set [7]: not given
The source holds these as a separate data set.

A short description of data set [8]: method code SF-AS, from DOI: 10.1007/s001289900104, PMID: 8661852.
Data set [9] can be described thus: method code SF-GLC, from PMID: 6629728. To be noted: pH 7.4.
Data set [10] in a line: method code SF, from DOI: 10.1016/0360-3016(92)90876-j, PMID: 1735696. Conditions: pH 7.4.
Data set [11] can be described thus: method code SF-AS, from DOI: 10.1021/jm00284a014, PMID: 5544400.
A short description of data set [12]: method code SF-AS, from DOI: 10.1021/bi00730a008, PMID: 4688860.
Experiment in data set [13]: not given
The source holds these as a separate data set.

Data set [14] in a line: from Kurihara, N.; Yamakawa, K.; Fujita, T.; Nakajima, M. (1980). Studies on BHC isomers and related compounds. XXVI. Anaerobic degradation of tetra-, penta- and hexachlorocyclohexane isomers by rat liver ….
Experiment in data set [15]: not given
This is another data set of the same source.

Data set [16] is described as follows: method code SF-GLC, from DOI: 10.1016/s0022-3565(25)30310-1, PMID: 1181405. Conditions: pH 7.4.
Data set [17] is described as follows: method code SF-AS, from DOI: 10.1002/jps.2600690614, PMID: 7205578.
Experiment in data set [18]: not given
This is another data set of the same source.

A short description of data set [19]: method code SF-RC, from DOI: 10.1021/es60170a013.
Experiment in data set [20]: not given
This is another data set of the same source.

Experiment in data set [21]: not given
This is another data set of the same source.

The nature of data set [22]: method code SF-AS, from DOI: 10.1016/0045-6535(83)90122-4.
A short description of data set [23]: method code SF-GLC, from DOI: 10.1021/jm00240a002, PMID: 1151965.
Experiment in data set [24]: not given
This is another data set of the same source.

Data set [25] is described as follows: method code SF, from DOI: 10.1248/yakushi1947.96.10_1169, PMID: 1033993. To be noted: pH 0.7.
Data set [26] in a line: method code SF-AS, from DOI: 10.1111/1523-1747.ep12263302, PMID: 6470515.
Experiment in data set [27]: not given
This is another data set of the same source.

logP and logD data for 85 molecules are collected here from the SangsterLogP compilation.

Regarding `CC(CCO)C(F)(F)F` (stereo not given), the logP (commonly the decadic logarithm of the partition coefficient of the neutral form, usually between octanol and water) in [1] is 1.37.

On to `O=c1[nH]cnc2[nH]ncc12`, for which, in data set [2] (pH 7.4), the logD – broadly, the decadic logarithm of the distribution of all forms, ionised or not, between an organic phase and buffer at a given pH – is -0.55.

Take `NS(=O)(=O)c1cc2c(cc1C(F)(F)F)NCNS2(=O)=O`: in [3], the log partition coefficient (logP) amounted to 0.36.

For `Cc1cc(C(=O)N2Cc3ccc(C(=O)N(CCO)CCO)n3Cc3ccccc32)ccc1-c1ccccc1C(F)(F)F`, the logP was determined as 3.21.

With `CCC(C(=O)OCc1ccccc1COC(=O)C(CC)C(CO)Cc1cncn1C)C(CO)Cc1cncn1C` (stereo not given), the pH-dependent lipophilicity (logD) in [4] turned out to be 2.03.

On to `C1=CCCC=CCCC=CCC1`, for which the logP in data set [5] was determined as 4.12.

Take `CNC(=O)CNC(C)=O`: the logD in [6] is -1.56.

`CCCC(C)C(=O)O` (stereo not given): the logP in data set [7] is 1.8.

`Oc1cc(O)nc(-c2ncncn2)n1`: the logP in [8] came to 1.49.

In [9], `C1COC2CC2C1` (stereo not given) gave a logD of 1.26.

As for `CCCC(CC)C(=O)O` (stereo not given), the logP in data set [7] is 2.23.

Regarding `O=C(Cn1ccnc1[N+](=O)[O-])NCCO`, the pH-dependent lipophilicity (logD) in [10] is -1.32.

`N#Cc1c(Cl)cccc1Cl` gave a logP in [5] of 2.65.

For the molecule `CCCN1CCCN(CCC)C1=S`, the logP in [11] was 2.83.

Molecule `CC(=O)c1ccc(NC=O)cc1` displayed a logP in [12] of 0.94.

For the molecule `Cc1cc(C(=O)N2Cc3ccc(C(=O)N4CCOCC4)n3Cc3ccccc32)ccc1-c1ccccc1CCF`, the lipophilicity (logP) turned out to be 4.08.

In data set [13], `O=c1cc(O)cco1` came in with a logP of 0.5.

On to `ClC1C=CC(Cl)C(Cl)C1Cl` (stereo not given), for which the logP in data set [14] worked out at 3.08.

Molecule `O=C(Cc1cc(O)cc(=O)o1)c1ccccc1` yielded a logP in [13] of 0.43.

`CS(=O)(=O)c1ccc(OCC(=O)O)cc1` registered a lipophilicity (logP) in data set [15] of 0.06.

In [16], `CNC(=O)OC` gave a logD of -0.06.

On to `CCN1CCN(CC)C1=S`, for which the logP in data set [17] came to 1.13.

With `C1=C(c2ccccc2)CCN(c2ccccc2)C1`, the logP in data set [18] is 2.71.

The molecule `S=C1NCCCN1` displayed a logP in [17] of -0.68.

Turning to `Clc1cc(-c2ncncn2)c(Cl)nn1`, the logP in [8] amounted to 0.84.

On to `ClC1=C(Cl)C(Cl)C(Cl)C(Cl)C1Cl` (stereo not given), for which the logP in data set [14] was 4.31.

Consider `Clc1cccc(Cl)c1`, for which the logP in [19] was determined as 3.44.

In [20], `COc1cccc(OC)c1C(=O)O` yielded a log partition coefficient (logP) of 0.95.

The molecule `CNC(=O)C(C)NC(C)=O` (racemic) registered a logD in data set [6] of -1.21.

`NC(=O)c1c(Cl)cccc1Cl` showed a logP in data set [21] of 1.25.

Molecule `CC(=O)O/N=C/Cn1ccnc1[N+](=O)[O-]` yielded a logD in data set [10] of -0.47.

Molecule `CNC(=O)[C@H](CC(C)C)NC(C)=O` had a logD in data set [6] of 0.14.

Turning to `O=[N+]([O-])c1cc(Cl)c(Cl)cc1Cl`, in [22], the log partition coefficient (logP) was found to be 3.48.

In [2], `CC(=O)n1ncc2c(=O)[nH]cnc21` returned a logP of -0.35.

`Cc1cc(C(=O)N2Cc3ccc(C(=O)NCCF)n3Cc3ccccc32)ccc1-c1ccccc1C(F)(F)F` yielded a logP of 4.18.

In the case of `COc1ccc(S(N)(=O)=O)cc1`, the logP in data set [18] came out at 0.48.

As for `COC(F)(F)C(Cl)Cl`, in data set [23], the logP worked out at 2.21.

As to `O=[N+]([O-])c1c(Cl)c(Cl)c(Cl)c(Cl)c1Cl`, the logP in data set [21] is 4.64.

For the molecule `NC(=O)c1cccnc1`, the log partition coefficient (logP) in data set [24] was -0.34.

In turn, `OCc1c(F)cccc1F` returned a logP in [18] of 1.12.

In data set [22], `O=[N+]([O-])c1ccc(Cl)c(Cl)c1` showed a logP of 3.12.

In the case of `C=CCC1(CC)C(=O)NC(=O)N(C)C1=O` (stereo not given), the logD in [25] was 1.35.

`O=CNc1ccc(Cl)cc1`: in data set [12], the logP stood at 2.04.

For `CCOC(=O)COc1cccc2ccccc12`, in data set [15], the log partition coefficient (logP) amounted to 2.9.

The molecule `Cc1cc(C(=O)N2Cc3ccc(C(=O)N(CCO)CCO)n3Cc3ccccc32)ccc1-c1cc(F)ccc1C(F)(F)F` had a logP of 3.31.

Molecule `O=[N+]([O-])c1nccn1CC=NO` had a logD in data set [10] of -0.43.

`CCNC(=O)c1cccnc1`: in data set [24], the logP came out at 0.31.

For `CCC1(C2CCCCC2)C(=O)NC(=O)N(C)C1=O` (stereo not given), the logD in [25] came to 2.

Regarding `Nc1c(Cl)c(F)nc(OCC(=O)O)c1Cl`, the logP in [20] was 1.74.

In data set [1], `CCC(O)CCC(F)(F)F` (stereo not given) returned a logP of 1.7.

On to `NS(=O)(=O)c1cc2c(cc1Cl)N=CNS2(=O)=O`, for which the log partition coefficient (logP) in data set [3] is -0.1.

The molecule `Clc1ccc(Cl)c(Cl)c1` showed a logP in [21] of 4.03.

For the molecule `Nc1cc([N+](=O)[O-])ccc1O`, in [26], the logP amounted to 1.13.

For the molecule `O=NN(c1ccccc1)c1ccccc1`, the logP in data set [19] is 3.13.

For `CNC(=O)Oc1cc(C)c(C)c(C)c1`, the logD in data set [16] stood at 2.66.

`S=c1[nH]c2ccccc2[nH]1` registered a logP in [11] of 1.66.

In data set [26], `Nc1ccc(Cl)c(N)c1` returned a logP of 0.85.

`Cc1c(O)cc(C(=O)Cc2ccccc2)oc1=O` displayed a logP in data set [13] of 0.78.

With `CCC1C(=O)NC(=O)NC1=O`, the log distribution coefficient (logD) in data set [25] is -0.35.

Molecule `CC(CO)CC(F)(F)F` (stereo not given) came in with a logP in [1] of 1.39.

Regarding `CCCNC(=O)c1cccnc1`, the logP in data set [24] worked out at 0.66.

For `O=CNc1cccc(Cl)c1`, in data set [12], the logP worked out at 1.9.

With `FC(F)(F)C(F)(F)F`, the logP in data set [23] amounted to 2.

As for `CCC(C(=O)OCc1ccc(COC(=O)C(CC)C(CO)Cc2cncn2C)cc1)C(CO)Cc1cncn1C` (stereo not given), the logD in [4] was 2.18.

In the case of `O=c1[nH]c2ccccc2[nH]1`, the logP in [11] amounted to 1.12.

Consider `CCC(=O)n1ncc2c(=O)[nH]cnc21`, for which, in data set [2], the logP was 0.3.

`COc1cc(N)cc(OC)c1` had a logP in [27] of 0.99.

Turning to `C1=C\CC/C=C\CC/1`, the logP in data set [5] amounted to 3.16.

`CCNc1nc(NCC)nc(SC)n1`: the logP in data set [27] came to 2.63.

Molecule `Nc1cc(Cl)cc(Cl)c1` gave a logP in [27] of 2.6.

`CC(C)c1cc(C(C)C)c(C(=O)O)c(C(C)C)c1`: the logP in [20] was determined as 4.05.

`C1CC2OC2CC1C1CO1` (stereo not given) showed a logD in data set [9] of 0.44.

The molecule `O=[N+]([O-])c1c(Cl)c(Cl)cc(Cl)c1Cl` showed a log partition coefficient (logP) in [22] of 3.89.

Regarding `CCCCC(CCC)C(=O)O` (stereo not given), the logP in [7] was 3.01.

`Nc1ccc(N)cc1` yielded a logP in data set [26] of -0.3.

The molecule `COc1ccc(Cl)cc1` yielded a lipophilicity (logP) in data set [19] of 2.78.

`O=[N+]([O-])c1c(Cl)nc(-c2ncncn2)nc1Cl` displayed a logP in data set [8] of 2.29.

On to `C=CC1CCC2OC2C1` (stereo not given), for which the logD in data set [9] worked out at 2.08.

On to `Nc1nc[nH]n1`, for which, in data set [15], the logP was -0.87.

On to `ClC1=CC(Cl)C(Cl)C(Cl)C1Cl` (stereo not given), for which the logP in data set [14] was 3.61.

`CCC(C(=O)OCCCCCCCOC(=O)C(CC)C(CO)Cc1cncn1C)C(CO)Cc1cncn1C` (stereo not given): in data set [4], the logD came out at 2.67.

Molecule `CN(C)CCN(Cc1cccs1)c1ccccn1` registered a logP in data set [17] of 2.87.

`CN1C(CSCC(F)(F)F)Nc2cc(Cl)c(S(N)(=O)=O)cc2S1(=O)=O` (stereo not given): the logP in data set [3] amounted to 1.9.

As to `CCCOC(=O)NC`, the logD in data set [16] was 0.95.

With `FC(F)(F)C(Cl)Br` (stereo not given), the logP in data set [23] came out at 2.3.
